According to patent US11608341B2, “Substituted tetrahydropyrazolo[3,4-d]pyrimidines and tetrahydropyrazolo[4,3-d]pyrimidines as C5A receptor modulators” (Idorsia Pharmaceuticals Ltd., priority 2018, dated 2023):
pIC50: −log10 of the molar value.

Biological target: T1, C5AR1 (Homo sapiens, UniProt P21730)
T1 construct: host or cells: CHO-K1
T1 sequence (P21730 1-350): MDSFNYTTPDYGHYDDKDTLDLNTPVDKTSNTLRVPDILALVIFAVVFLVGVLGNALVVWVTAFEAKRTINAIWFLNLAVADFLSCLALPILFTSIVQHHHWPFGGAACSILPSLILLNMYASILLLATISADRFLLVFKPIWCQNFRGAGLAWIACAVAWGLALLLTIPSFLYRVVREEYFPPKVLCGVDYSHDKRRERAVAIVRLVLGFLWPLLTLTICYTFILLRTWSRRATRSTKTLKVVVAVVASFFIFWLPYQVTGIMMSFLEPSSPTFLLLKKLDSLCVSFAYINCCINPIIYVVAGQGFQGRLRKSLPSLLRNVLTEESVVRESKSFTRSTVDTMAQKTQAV
Assay: In vitro assay: antagonism of C5a-induced beta-arrestin recruitment (PathHunter) in CHO-K1 C5AR1 beta-arrestin cell line
Assay type: cell-based
Details: antagonistic activity, 1-10 nM C5a agonist, geometric mean where several measurements, read-out: C5aR IC50
How it was run: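 Antagonist or DMSO added first, then C5a (1-10 nM, added at 6-fold end concentration), 1.5 h at 37 °C. PathHunter detection reagent was added for 45 min at RT before plate reading. IC50s come from antagonist serial dilutions in nmol/l and are geometric means of several measurements.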

pIC50 | Structure (SMILES)
8.40 | C=C(C)n1cc2c(n1)CN(C1CCN(c3c(C)cccc3F)CC1)C(=O)N2Cc1ccccc1C(F)(F)F [Example 192]
7.85 | Cc1cccc(F)c1N1CCC(N2Cc3c[nH]nc3N(Cc3ncccc3C(F)(F)F)C2=O)CC1 [Example 193]
8.30 | Cc1cccc(F)c1N1CCC(N2Cc3cn(CC(C)(F)F)nc3N(Cc3ncccc3C(F)(F)F)C2=O)CC1 [Example 194]
7.35 | Cc1cccc(F)c1N1CCC(N2Cc3nn(COCC[Si](C)(C)C)cc3N(Cc3ccccc3C(F)(F)F)C2=O)CC1 [Example 195]
7.96 | COc1nccc(C)c1N1CCC(N2Cc3cn(COCC[Si](C)(C)C)nc3N(Cc3ccccc3C(F)(F)F)C2=O)CC1 [Example 196]
7.77 | COc1nccc(C)c1N1CCC(N2Cc3c[nH]nc3N(Cc3ccccc3C(F)(F)F)C2=O)CC1 [Example 197]
7.89 | Cc1cccc(F)c1N1CCC(N2Cc3nn(CC(C)(F)F)cc3N(Cc3ccccc3C(F)(F)F)C2=O)CC1 [Example 198]
7.49 | Cc1cccc(F)c1N1CCC(N2Cc3nn(COCC[Si](C)(C)C)cc3N(Cc3ncccc3C(F)(F)F)C2=O)CC1 [Example 199]
8.40 | Cc1cccc(F)c1N1CCC(N2Cc3cn(CC4(F)CC4)nc3N(Cc3ncccc3C(F)(F)F)C2=O)CC1 [Example 200]
8.22 | COc1nccc(C)c1N1CCC(N2Cc3cn(CC4(F)CC4)nc3N(Cc3ccccc3C(F)(F)F)C2=O)CC1 [Example 201]
7.64 | Cc1cccc(F)c1N1CCC(N2Cc3n[nH]cc3N(Cc3ncccc3C(F)(F)F)C2=O)CC1 [Example 204]
8.10 | COc1nccc(C)c1N1CCC(N2Cc3cn(CC(C)(F)F)nc3N(Cc3ccccc3C(F)(F)F)C2=O)CC1 [Example 205]
8.52 | Cc1cccc(F)c1N1CCC(N2Cc3nn(CC4(F)CC4)cc3N(Cc3ncccc3C(F)(F)F)C2=O)CC1 [Example 208]
8.30 | COc1nccc(C)c1N1CCC(N2Cc3cn(C4CC4)nc3N(Cc3ccccc3C(F)(F)F)C2=O)CC1 [Example 209]
7.34 | Cc1cccc(F)c1N1CCC(N2Cc3cnn(CC4CC4)c3N(Cc3ccccc3C(F)(F)F)C2=O)CC1 [Example 210]
8.00 | Cc1cccc(F)c1N1CCC(N2Cc3nn(C4CC4)cc3N(Cc3ncccc3C(F)(F)F)C2=O)CC1 [Example 212]
7.28 | Cc1cccc(F)c1N1CCC(N2Cc3cn(C4CC4)nc3N(Cc3c(Br)cccc3C(F)(F)F)C2=O)CC1 [Example 213]
7.06 | Cc1cccc(F)c1N1CCC(N2Cc3cn(CC(C)(F)F)nc3N(Cc3c(Br)cccc3C(F)(F)F)C2=O)CC1 [Example 214]
6.84 | Cc1cccc(F)c1N1CCC(N2Cc3c(cnn3C3CC3)N(Cc3ncccc3C(F)(F)F)C2=O)CC1 [Example 215]
7.39 | COc1nccc(C)c1N1CCC(N2Cc3c(cnn3COCC[Si](C)(C)C)N(Cc3ccccc3C(F)(F)F)C2=O)CC1 [Example 216]
7.96 | Cc1cccc(F)c1N1CCC(C)(N2Cc3cn(C)nc3N(Cc3ccccc3C(F)(F)F)C2=O)CC1 [Example 217]
7.92 | COc1nccc(C)c1N1CCC(N2Cc3n[nH]cc3N(Cc3ccccc3C(F)(F)F)C2=O)CC1 [Example 218]
7.42 | COc1nccc(C)c1N1CCC(N2Cc3nn(CC(C)(F)F)cc3N(Cc3ccccc3C(F)(F)F)C2=O)CC1 [Example 219]
7.72 | COc1nccc(C)c1N1CCC(N2Cc3nn(CC4(F)CC4)cc3N(Cc3ccccc3C(F)(F)F)C2=O)CC1 [Example 222]
7.49 | COc1nccc(C)c1N1CCC(N2Cc3nn(C4CC4)cc3N(Cc3ccccc3C(F)(F)F)C2=O)CC1 [Example 223]
7.12 | COc1nccc(C)c1N1CCC(N2Cc3nn(C)cc3N(Cc3ccccc3C(F)(F)F)C2=O)CC1 [Example 224]

pIC50 | Structure (SMILES)
8.00 | COCn1cc2c(n1)N(Cc1ccccc1C(F)(F)F)C(=O)N(C1CCN(c3c(C)ccnc3OC)CC1)C2 [Example 227]
8.00 | Cc1cccc(F)c1N1CCC(N2Cc3cn(C)nc3N(Cc3ccccc3C3CC3)C2=O)CC1 [Example 228]
6.26 | Cc1nn(C)c(N2CCC(N3Cc4cn(C)nc4N(Cc4ccccc4C(F)(F)F)C3=O)CC2)c1C#N [Example 229]
7.43 | Cc1cccc(F)c1N1CCC(N2Cc3c(cnn3COCC[Si](C)(C)C)N(Cc3ncccc3C(F)(F)F)C2=O)CC1 [Example 230]
7.77 | Cc1cccc(F)c1N1CCC(N2Cc3cn(C)nc3N(Cc3ccccc3C(C)C)C2=O)CC1 [Example 231]
7.80 | Cc1cccc(F)c1N1CCC(N2Cc3cn(C)nc3N(Cc3ccccc3OC(F)(F)F)C2=O)CC1 [Example 232]
8.00 | Cc1cccc(F)c1N1CCC(N2Cc3cn(C)nc3N(Cc3ccccc3Cl)C2=O)CC1 [Example 233]
6.51 | Cc1cccc(F)c1N1CCC(N2Cc3cn(C)nc3N(Cc3c(F)cc(F)cc3OC(C)C)C2=O)CC1 [Example 236]
7.10 | Cc1cccc(F)c1N1CCC(N2C(=O)N(Cc3ccccc3C(F)(F)F)c3cnn(COCC[Si](C)(C)C)c3C2C)CC1 (stereo not shown) [Example 237]
6.78 | Cc1nn(C)c(N2CCC(N3Cc4cn(C)nc4N(Cc4ccccc4C(F)(F)F)C3=O)CC2)c1Cl [Example 238]
7.55 | Cn1cc2c(n1)N(Cc1ccccc1C(F)(F)F)C(=O)N(C1CCN(c3c(F)cccc3C(F)(F)F)CC1)C2 [Example 243]
7.80 | Cn1cc2c(n1)N(Cc1ccccc1C(F)(F)F)C(=O)N(C1CCN(c3c(F)cccc3OC(F)(F)F)CC1)C2 [Example 244]
7.80 | Cc1cccc(Cl)c1N1CCC(N2Cc3cn(C)nc3N(Cc3ccccc3C(F)(F)F)C2=O)CC1 [Example 245]
7.80 | Cc1cccc(F)c1N1CCC(N2Cc3cn(C)nc3N(Cc3ccccc3OCC3CC3)C2=O)CC1 [Example 248]
7.16 | Cc1cccc(F)c1N1CCC(N2Cc3cn(C)nc3N(Cc3cncnc3C(C)C)C2=O)CC1 [Example 249]
8.00 | Cc1cccc(F)c1N1CCC(N2Cc3cn(C)nc3N(Cc3ccccc3OC3COC3)C2=O)CC1 [Example 250]
8.05 | Cc1cccc(F)c1N1CCC(N2Cc3cn(C)nc3N(Cc3ccccc3OC(C)C)C2=O)CC1 [Example 251]
8.05 | CCOc1ccccc1CN1C(=O)N(C2CCN(c3c(C)cccc3F)CC2)Cc2cn(C)nc21 [Example 252]
8.05 | CC(C)c1ccccc1N1CCC(N2Cc3cn(C)nc3N(Cc3ccccc3C(F)(F)F)C2=O)CC1 [Example 257]
7.85 | Cn1cc2c(n1)N(Cc1ccccc1C(F)(F)F)C(=O)N(C1CCN(c3ccccc3C3CC3)CC1)C2 [Example 258]
7.31 | Cc1cccc(F)c1N1CCC(N2Cc3nn(C)cc3N(Cc3ccccc3C3CC3)C2=O)CC1 [Example 259]
7.40 | Cc1cccc(F)c1N1CCC(N2Cc3nn(C)cc3N(Cc3ccccc3C(C)C)C2=O)CC1 [Example 260]
6.67 | Cc1cccc(F)c1N1CC(N2Cc3cn(C)nc3N(Cc3ccccc3C(F)(F)F)C2=O)C1 [Example 264]
6.70 | Cc1cccc(F)c1N1CCC(N2Cc3cn(C)nc3N(Cc3nnccc3OC(C)C)C2=O)CC1 [Example 267]
7.14 | Cc1cccc(F)c1N1CCC(N2C(=O)N(Cc3ccccc3C3CC3)c3cn(C4CCCCO4)nc3C2C)CC1 (stereo not shown) [Example 268]
6.71 | COc1nccc(C)c1N1CCC(N2C(=O)N(Cc3ccccc3C3CC3)c3cn(C4CCCCO4)nc3C2C)CC1 (stereo not shown) [Example 269]
